Reference: patent US8932613B2, “Ectoparasite control method” (E I du Pont de Nemours and Company, priority 2007, dated 2015)

Experiments:
Adult A. aegypti = Adult A. aegypti contact assay; conditions: treated flask base, bioassay run for 8 hrs
Description: Adult A. aegypti were exposed to six rates of the positive control compound permethrin and the experimental compounds diluted with acetone. The dilutions of test compound (3-bromo-1-(3-chloro-2-pyridinyl)-N-[4-cyano-2-methyl-6-[(methylamino)carbonyl]phenyl]-1H-pyrazole-5-carboxamide)used were 0 ppm (acetone only), 0.1 ppm, 1 ppm, 10 ppm, 20 ppm, 50 ppm, 100 ppm, 500 ppm and 1000 ppm. Each rate was replicated 5 times. The test was conducted in 100 mL conical flasks. The entire inside of the flasks was coated with Coatasil the day before the treatments are applied. A 0.5 ml aliquot of each rate was applied to the bases only of the flasks. At 24 hours after the surfaces had been treated adult A. aegypti were anaesthetised using food grade carbon dioxide and 10 mosquitoes were introduced to each conical flask and the mouths of the flasks covered with parafilm. Small holes were made in the parafilm to allow gas exchange. The bioassay was run for 8 hrs at 25±2° C. and relative humidity of approximately 70%.

[1] = tested on: cat flea (Ctenocephalides felis Bouche); assay: In vivo evaluation against artificial infestations with cat fleas on mice; conditions: CD-1 mouse, 10 mg/kg oral in propylene glycol/glycerol formal (60:40), fleas applied 2 h after dosing, evaluated 48 hours after flea application
Description: For evaluating control of the cat flea (Ctenocephalides felis Bouche), a CD-1® mouse (about 30 g, male, obtained from Charles River Laboratories, Wilmington, Mass.) was orally dosed with test compound in an amount of 10 mg/kg solubilized in propylene glycol/glycerol formal (60:40). Two hours after oral administration of the test compound, approximately 8 to 16 adult fleas were applied to each mouse. The fleas were then evaluated for mortality 48 hours after flea application to the mouse.

adult H. irritans exigua = assay: Adult H. irritans exigua feeding assay (blood meal assay); conditions: for mortality at 0.2 ppm: 200 ppb in bovine blood; for mortality at 0.4 ppm: 400 ppb in bovine blood; for mortality at 0.6 ppm: 600 ppb in bovine blood
Description: A blood meal assay was used to determine the LC50 for test compound (3-bromo-1-(3-chloro-2-pyridinyl)-N-[4-cyano-2-methyl-6-[(methylamino)carbonyl]phenyl]-1H-pyrazole-5-carboxamide) on adult H. irritans exigua. Six (6) serial dilutions of the test compound were prepared in decoagulated bovine blood that was stored refrigerated. Ivermectin was included as a positive control compound and a negative control was included in each assay. Flies were collected with a net immediately before each assay from yarded commercial cattle. About 100 adults were introduced into a mesh cage (30×30×30 cm) containing one cotton gauze (4×4×1 cm) soaked in one blood/insecticide concentration. There were 3 replicate cages of each blood/insecticide concentration. Blood gauzes were replaced every 12 hours. The untreated control cages received untreated decoagulated blood. All cages were labelled and stored for 72 hours at 25-27° C. in the dark at ambient relative humidity (70-85%). […] At 72-96 hours all flies were counted and percentage mortality was calculated. Data was subjected to log-probit analysis to determine the LC50 if there is a dose response in the assay.

[2] = tested on: Brown Dog Ticks (R. sanguineus); assay: In vivo evaluation against artificial infestations with brown dog ticks on dogs; conditions: topical, test compound 60 mg/kg line-on in NMP, 9 days post-treatment
Excerpt: Twenty five dogs were used in this study that investigated the efficacy of test compound (3-bromo-1-(3-chloro-2-pyridinyl)-N-[4-cyano-2-methyl-6-[(methylamino)carbonyl]phenyl]-1H-pyrazole-5-carboxamide)
against fleas and ticks. Two groups (one treated and one untreated) of five dogs were used to evaluate the flea efficacy whilst two groups of five dogs (one treated and one untreated) were used to investigate the tick efficacy. The dogs in the respective groups were infested weekly with 40 unfed adult ticks and 100 cat fleas. One group was treated with ADVANTIX and served as a positive control. The dogs in this group were infested simultaneously with fleas and ticks. Test compound was formulated in NMP. The treatment was applied topically via syringe on the dorsal line of the animals as a line-on at 60 mg/kg dose rate. The efficacy of the compound was assessed by weekly tick and flea counts. The weekly counts generated in the treated groups were compared to the positive and negative untreated control (UTC) group counts to evaluate efficacy of Test compound.

`CC1(C)C(C=C(Cl)Cl)C1C(=O)OCc1cccc(Oc2ccccc2)c1` (stereo not shown) [Permethrin, reference compound] gave an LC90 (Adult A. aegypti) of 0.046 ug/flask.

`CNC(=O)c1cc(C#N)cc(C)c1NC(=O)c1cc(Br)nn1-c1ncccc1Cl` [Test compound, 3-bromo-1-(3-chloro-2-pyridinyl)-N-[4-cyano-2-methyl-6-[(methylamino)carbonyl]phenyl]-1H-pyrazole-5-carboxamide] was tested, and the flea mortality [1] was 45%, the mortality at 0.2 ppm (adult H. irritans exigua; exposure time 7 hr) was 77.3% and the mortality at 0.2 ppm (adult H. irritans exigua; exposure time 17 hr) was 78.8%. For the same molecule, the mortality at 0.2 ppm (adult H. irritans exigua; exposure time 24 hr) was 80.3%, the mortality at 0.4 ppm (adult H. irritans exigua; exposure time 7 hr) was 78.8% and the mortality at 0.4 ppm (adult H. irritans exigua; exposure time 17 hr) was 89.8%. The mortality at 0.4 ppm (adult H. irritans exigua; exposure time 24 hr) was 94.9%, the mortality at 0.6 ppm (adult H. irritans exigua; exposure time 7 hr) was 80.5% and the mortality at 0.6 ppm (adult H. irritans exigua; exposure time 17 hr) was 94.7%. The mortality at 0.6 ppm (adult H. irritans exigua; exposure time 24 hr) was 96.5%, the efficacy against ticks [2] was “over 94.9%” and the LC90 (Adult A. aegypti) was 0.033 ug/flask.
